In ChEMBL document CHEMBL1135585, “Mixed steroidal 1,2,4,5-tetraoxanes: antimalarial and antimycobacterial activity” (J Med Chem, 2002):

Legend:
[1] = tested on: Plasmodium falciparum
Description: In vitro inhibitory activity against chloroquine-sensitive Plasmodium falciparum African D6

[2] = tested on: Plasmodium falciparum; remark: listed apart in the source
Description: (§1) In vitro inhibitory activity against chloroquine-resistant Plasmodium falciparum W2 Indochina

[3] = tested on: Plasmodium falciparum; experiment: microbe, parasite or virus in culture
Description: as §1

Structure (SMILES)	IC50 [1] [nM]	IC50 [2] [nM]	IC50 [3] [nM]
CCC1CCC2(CC1)OOC1(CC[C@@]3(C)[C@H](C[C@@H](OC(C)=O)[C@@H]4[C@@H]3C[C@H](OC(C)=O)[C@]3(C)C(C(C)CCC(N)=O)CC[C@@H]43)C1)OO2 (mixture of isomers; 20)	8.4	10.7	–
CCC1CCC2(CC1)OOC1(CC[C@@]3(C)[C@H](C[C@@H](OC(C)=O)[C@@H]4[C@@H]3C[C@H](OC(C)=O)[C@]3(C)C(C(C)CCC(=O)NC)CC[C@@H]43)C1)OO2 (mixture of isomers; 21)	7.21	–	7.82
CCCNC(=O)CCC(C)C1CC[C@H]2[C@@H]3[C@H](OC(C)=O)C[C@@H]4CC5(CC[C@]4(C)[C@H]3C[C@H](OC(C)=O)[C@]12C)OOC1(CCC(CC)CC1)OO5 (mixture of isomers; 23)	8.34	4.51	–
CCC1CCC2(CC1)OOC1(CC[C@@]3(C)[C@H](C[C@@H](OC(C)=O)[C@@H]4[C@@H]3C[C@H](OC(C)=O)[C@]3(C)C(C(C)CCC(N)=O)CC[C@@H]43)C1)OO2 (mixture of isomers; 24)	31.1	–	12.5
CCC1CCC2(CC1)OOC1(CC[C@@]3(C)[C@H](C[C@@H](OC(C)=O)[C@@H]4[C@@H]3C[C@H](OC(C)=O)[C@]3(C)C(C(C)CCC(=O)NC)CC[C@@H]43)C1)OO2 (mixture of isomers; 25)	27.9	6.15	–
CCNC(=O)CCC(C)C1CC[C@H]2[C@@H]3[C@H](OC(C)=O)C[C@@H]4CC5(CC[C@]4(C)[C@H]3C[C@H](OC(C)=O)[C@]12C)OOC1(CCC(CC)CC1)OO5 (mixture of isomers; 26)	23.1	18.1	–
CCCNC(=O)CCC(C)C1CC[C@H]2[C@@H]3[C@H](OC(C)=O)C[C@@H]4CC5(CC[C@]4(C)[C@H]3C[C@H](OC(C)=O)[C@]12C)OOC1(CCC(CC)CC1)OO5 (mixture of isomers; 27)	90.2	123	–
CCC1CCC2(CC1)OOC1(CC[C@@]3(C)[C@H](C[C@@H](OC(C)=O)[C@@H]4[C@@H]3C[C@H](OC(C)=O)[C@]3(C)C(C(C)CCC(=O)OC)CC[C@@H]43)C1)OO2 (single isomer, unassigned; 3i)	6.73	15.5	–
CCC1CCC2(CC1)OOC1(CC[C@@]3(C)[C@H](C[C@@H](OC(C)=O)[C@@H]4[C@@H]3C[C@H](OC(C)=O)[C@]3(C)C(C(C)CCC(=O)OC)CC[C@@H]43)C1)OO2 (single isomer, unassigned; 3j)	17.7	–	28.3
COC(=O)CCC(C)C1CC[C@H]2[C@@H]3[C@H](OC(C)=O)C[C@@H]4CC5(CC[C@]4(C)[C@H]3C[C@H](OC(C)=O)[C@]12C)OOC1(CCC(C)CC1)OO5 (stereo in doubt; 3h)	24.6	13.2	–
COC(=O)CCC(C)C1CC[C@H]2[C@@H]3[C@H](OC(C)=O)C[C@@H]4CC5(CC[C@]4(C)[C@H]3C[C@H](OC(C)=O)[C@]12C)OOC1(CCC(C(C)(C)C)CC1)OO5 (stereo in doubt; 3k)	107	52.7	–
COC(=O)CCC(C)C1CC[C@H]2[C@@H]3[C@H](OC(C)=O)C[C@@H]4CC5(CC[C@]4(C)[C@H]3C[C@H](OC(C)=O)[C@]12C)OOC1(CCC(C(C)(C)C)CC1)OO5 (stereo in doubt; 3l)	51.9	–	27.8
CC(=O)O[C@H]1C[C@H]2[C@@H]([C@H](OC(C)=O)C[C@@H]3CC4(CC[C@@]32C)OOC2(CCC(C)CC2)OO4)[C@@H]2CCC(C(C)CCC(=O)O)[C@@]12C (stereo in doubt; 4h)	31.1	17.7	–
CCC1CCC2(CC1)OOC1(CC[C@@]3(C)[C@H](C[C@@H](OC(C)=O)[C@@H]4[C@@H]3C[C@H](OC(C)=O)[C@]3(C)C(C(C)CCC(=O)O)CC[C@@H]43)C1)OO2 (stereo in doubt; 4j)	9.83	14.4	–
